Holding throughout (type): cell-based
For series [1], the system named is recombinant NL4-3 virus (nef section replaced with Renilla luciferase gene) in MT-2 cells. In words: HIV cell culture assay (antiviral activity, luciferase readout). The following applies: MT-2 cells infected for 4-5 days with recombinant NL4-3 luciferase virus. In a few lines: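 Serially diluted compounds were present throughout a 4-5 day infection of MT-2 cells by recombinant NL4-3 whose nef region partly encodes Renilla luciferase. Antiviral activity was taken from live-cell luciferase signal, with the 50% effective concentration fitted by the exponential median effect equation.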

For series [2], the system named is uninfected MT2 cells. In words: Compound cytotoxicity, XTT-based colorimetric assay. In a few lines:
(§1)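 XTT colorimetric read-out on day 4 gave CC50 values, using MT2 cells left uninfected but otherwise handled as in the antiviral assay.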

Test in series [3]: as above
The following applies: human, uninfected MT2 cells. In a few lines:
as §1

Our source for the EC50 and CC50 values is patent publication US10954252B1, “Inhibitors of human immunodeficiency virus replication” (ViiV HEALTHCARE UK (NO.5) LIMITED, priority 2017, dated 2021).

A word on the pEC50: it is −log10 of the EC50, conventionally taken in molar units. As usually defined, the CC50 is the concentration at which the toxic effect on the cells reaches its halfway point. Lower therefore signals greater toxicity to the cells.

pEC50: −log10 of the molar value. A value given as a limit tells only on which side of the number the result lay.

For `O=C(Cc1c[nH]c2ccc(O)cc12)NC(Cc1cc(F)cc(F)c1)c1nc2cn[nH]c2cc1-c1ccc2scnc2c1` (single isomer, unassigned) [Example 3.4, N-(1-(6-(benzo[d]thiazol-5-yl)-1H-pyrazolo[4,3-b]pyridin-5-yl)-2-(3,5-difluorophenyl)ethyl)-2-(5-hydroxy-1H-indol-3-yl)acetamide], the pEC50 in series [1] (Table 1) was 6.33. This compound came in with a cytotoxic concentration (CC50) in series [2] (Table 1, day 4, XTT) of 83900 nM.
For `Cn1nc(NS(C)(=O)=O)c2c(Cl)ccc(-n3c([C@H](Cc4cc(F)cc(F)c4)NC(=O)Cn4nc(C(F)F)c5c4C(F)(F)[C@@H]4C[C@H]54)nc4c(Cl)cccc4c3=O)c21` (single isomer, unassigned) [Example 102], the pEC50 in series [1] (Table 1a) was 8.98. The compound also gave a CC50 in series [2] (Table 1a, day 4, XTT) of over 1000 nM.
As for `Cn1nc(NS(C)(=O)=O)c2c(Cl)ccc(-c3cc4scnc4nc3C(Cc3cc(F)cc(F)c3)NC(=O)Cn3nc(C(F)F)c4c3C(F)(F)[C@@H]3C[C@H]43)c21` (single isomer, unassigned) [Example 1.5], the pEC50 in series [1] (Table 1) was 5.94. Also, the cytotoxic concentration (CC50) in series [2] (Table 1, day 4, XTT) is over 10000 nM.
Consider `Cn1nc(NS(C)(=O)=O)c2c(Cl)ccc(-n3c([C@H](Cc4cc(F)cc(F)c4)NC(=O)Cn4nc(C(F)F)c5c4C(F)(F)[C@@H]4C[C@H]54)nc4cccc(C(F)(F)F)c4c3=O)c21` (single isomer, unassigned) [Example 128], for which, in series [1] (Table 1a), the negative-log EC50 (pEC50) is 9.21. In series [2] (Table 1a, day 4, XTT), this compound returned a CC50 of over 1000 nM.
For the compound `O=C(Cn1nc(C(F)F)c2c1C(F)(F)[C@@H]1C[C@H]21)NC(Cc1cc(F)cc(F)c1)c1ncc2nc[nH]c2c1-c1ccc2scnc2c1` (single isomer, unassigned) [Example 7.2], the negative logarithm of the EC50 (pEC50) in series [1] (Table 1) is 8.05. In series [2] (Table 1, day 4, XTT), the CC50 amounted to 17500 nM.
For the compound `Cn1nc(NS(C)(=O)=O)c2c(Cl)ccc(-n3c([C@H](Cc4cc(F)cc(F)c4)NC(=O)Cn4nc(C(F)F)c5c4C(F)(F)[C@@H]4C[C@H]54)nc4ncccc4c3=O)c21` (single isomer, unassigned) [Example 10.40], the negative-log EC50 (pEC50) in series [1] (Table 1) is 10.72. Further, the CC50 in series [2] (Table 1, day 4, XTT) was over 10000 nM.
In the case of `Cn1nc(NS(C)(=O)=O)c2c(Cl)ccc(-n3c([C@H](Cc4cc(F)cc(F)c4)NC(=O)Cn4nc(C(F)F)c5c4C(F)(F)[C@@H]4C[C@H]54)nc4cc(S(C)(=O)=O)ccc4c3=O)c21` (mixture of isomers) [Example 200, N—((S)-1-(3-(4-chloro-1-methyl-3-(methylsulfonamido)-1H-indazol-7-yl)-7-(methylsulfonyl)-4-oxo-3,4-dihydroquinazolin-2-yl)-2-(3,5-difluorophenyl)ethyl)-2-((3bS,4aR)-3-(difluoromethyl)-5,5-difluoro-3b,4,4a,5-tetrahydro-1H-cyclopropa[3,4]cyclopenta[1,2-c]pyrazol-1-yl)acetamide], the pEC50 in series [1] (Table 1a) was 9.70. The compound also gave a cytotoxic concentration (CC50) in series [2] (Table 1a, day 4, XTT) of over 1000 nM.
For `Cc1ccn(CC(=O)N[C@@H](Cc2cc(F)cc(F)c2)c2nc3ncccc3c(=O)n2-c2ccc(Cl)c3c(NS(C)(=O)=O)nn(C)c23)n1` (single isomer, unassigned) [Example 47.2] the same measures were 8.77 and over 1000 nM.
For `Cn1nc(NS(C)(=O)=O)c2c(Cl)ccc(-n3c([C@H](Cc4cc(F)cc(F)c4)NC(=O)Cn4ccc(C5CC5)n4)nc4cc(C(F)(F)F)ccc4c3=O)c21` (single isomer, unassigned) [Example 151], the negative logarithm of the EC50 (pEC50) in series [1] (Renilla, NL43, Table 1a) was 9.13. The CC50 in series [2] (Table 1a, day 4, XTT) was over 1000 nM.
Turning to `Cn1nc(NS(C)(=O)=O)c2c(Cl)ccc(-c3cc4scnc4nc3C(Cc3cc(F)cc(F)c3)NC(=O)Cn3nc(C(F)F)c4c3C(F)(F)[C@@H]3C[C@H]43)c21` (single isomer, unassigned) [Example 1.6], the pEC50 in series [1] (Table 1) is 5.75. In addition, in series [2] (Table 1, day 4, XTT), the CC50 was over 10000 nM.
Regarding `Cc1nc2nc(C(Cc3cc(F)cc(F)c3)NC(=O)Cn3nc(C(F)F)c4c3C(F)(F)[C@@H]3C[C@H]43)c(-c3ccc(Cl)c4c(NS(C)(=O)=O)nn(C)c34)cc2s1` (single isomer, unassigned) [Example 2.2], the negative-log EC50 (pEC50) in series [1] (Table 1) was 5.94. The compound also displayed a CC50 in series [2] (Table 1, day 4, XTT) of over 10000 nM.
For the compound `Cn1nc(NS(C)(=O)=O)c2c(Cl)ccc(-n3c([C@H](Cc4cc(F)cc(F)c4)NC(=O)Cn4nc(C(F)F)c5c4C(F)(F)[C@@H]4C[C@H]54)nc4cc(C(F)(F)F)ccc4c3=O)c21` (single isomer, unassigned) [Example 138], the negative-log EC50 (pEC50) in series [1] (Table 1a) is 10.38. In addition, in series [2] (Table 1a, day 4, XTT), the half-maximal cytotoxic concentration (CC50) is over 1000 nM.
Regarding `Cn1nc(NS(C)(=O)=O)c2c(Cl)ccc(-c3cc4ccccc4nc3C(Cc3cc(F)cc(F)c3)NC(=O)Cn3nc(C(F)F)c4c3C(F)(F)[C@@H]3C[C@H]43)c21` (single isomer, unassigned) [Example 8.2], the pEC50 in series [1] (Table 1) was 6.74. For the same compound, in series [2] (Table 1, day 4, XTT), the CC50 was over 10000 nM.
Turning to `Cn1nc(NS(C)(=O)=O)c2c(Cl)ccc(-n3c([C@H](Cc4cc(F)cc(F)c4)NC(=O)Cn4ccc(C5CC5)n4)nc4ccc(OC(F)(F)F)cc4c3=O)c21` (single isomer, unassigned) [Example 153], in series [1] (Table 1a), the negative logarithm of the EC50 (pEC50) is 9.01. Besides, the half-maximal cytotoxic concentration (CC50) in series [2] (Table 1a, day 4, XTT) was over 1000 nM.
The like results for `Cn1nc(NS(C)(=O)=O)c2c(Cl)ccc(-n3c([C@H](Cc4cc(F)cc(F)c4)NC(=O)Cn4ccc(C5CC5)n4)nc4cccc(F)c4c3=O)c21` (single isomer, unassigned) [Example 184] were, in that order, 9.46 and over 1000 nM.
Regarding `Cc1cccc2nc([C@H](Cc3cc(F)cc(F)c3)NC(=O)Cn3nc(C(F)F)c4c3C(F)(F)[C@@H]3C[C@H]43)n(-c3ccc(Cl)c4c(NS(C)(=O)=O)nn(C)c34)c(=O)c12` (single isomer, unassigned) [Example 126], the negative logarithm of the EC50 (pEC50) in series [1] (Table 1a) was 10.27. Further, in series [2] (Table 1a, day 4, XTT), the CC50 is over 1000 nM.
Consider `O=C(Cn1nc(C(F)F)c2c1C(F)(F)[C@@H]1C[C@H]21)NC(Cc1cc(F)cc(F)c1)c1nc2ncsc2cc1-c1ccc2scnc2c1` (single isomer, unassigned) [Example 1.1], for which, in series [1] (Table 1), the pEC50 is 8.51. In addition, in series [2] (Table 1, day 4, XTT), the 50% cytotoxic concentration (CC50) is over 100000 nM.
Take `Cn1nc(NS(C)(=O)=O)c2c(Cl)ccc(-n3c(C(Cc4cc(F)cc(F)c4)NC(=O)Cn4nc(C(F)F)c5c4C(F)(F)[C@@H]4C[C@H]54)nc4cccc(Cl)c4c3=O)c21` (mixture of isomers) [Example 22.1, N—((S)-1-(5-chloro-3-(4-chloro-1-methyl-3-(methylsulfonamido)-1H-indazol-7-yl)-4-oxo-3,4-dihydroquinazolin-2-yl)-2-(3,5-difluorophenyl)ethyl)-2-((3bS,4aR)-3-(difluoromethyl)-5,5-difluoro-3b,4,4a,5-tetrahydro-1H-cyclopropa[3,4]cyclopenta[1,2-c]pyrazol-1-yl)acetamide]: the negative-log EC50 (pEC50) in series [1] (Renilla, NL43, Table 1) is 4.50. For the same compound, the CC50 at 4 days in series [3] (Table 1, day 4, XTT) was over 1000 nM.
For the compound `COc1ccc2c(=O)n(-c3ccc(Cl)c4c(NS(C)(=O)=O)nn(CC(F)F)c34)c([C@H](Cc3cc(F)cc(F)c3)NC(=O)Cn3nc(C(F)F)c4c3C(F)(F)[C@@H]3C[C@H]43)nc2c1` (single isomer, unassigned) [Example 191], the pEC50 in series [1] (Renilla, NL43, Table 1a) was 10.22. The same compound displayed a cytotoxic concentration (CC50) at 4 days in series [3] (Table 1a, day 4, XTT) of over 1000 nM.
The like results for `CN1CCN(S(=O)(=O)c2ccc(-c3cc4[nH]ncc4nc3[C@H](Cc3cc(F)cc(F)c3)NC(=O)Cn3nc(C(F)F)c4c3C(F)(F)[C@@H]3C[C@H]43)cc2)CC1` [Example 28, 2-((3bS,4aR)-3-(difluoromethyl)-5,5-difluoro-3b,4,4a,5-tetrahydro-1H-cyclopropa[3,4]cyclopenta[1,2-c]pyrazol-1-yl)-N—((S)-2-(3,5-difluorophenyl)-1-(6-(4-((4-methylpiperazin-1-yl)sulfonyl)phenyl)-1H-pyrazolo[4,3-b]pyridin-5-yl)ethyl)acetamide] were, in that order, 7.70 and over 10000 nM.
`Cn1nc(NS(C)(=O)=O)c2c(Cl)ccc(-n3c([C@H](Cc4cc(F)cc(F)c4)NC(=O)Cn4ccc(C5CC5)n4)nc4cc(F)cc(F)c4c3=O)c21` (single isomer, unassigned) [Example 131]: the pEC50 in series [1] (Renilla, NL43, Table 1a) was 6.95. Also, the cytotoxic concentration (CC50) at 4 days in series [3] (Table 1a, day 4, XTT) is over 1000 nM.
Take `Cn1nc(NS(C)(=O)=O)c2c(Cl)ccc(-c3cc4cn[nH]c4nc3C(Cc3cc(F)cc(F)c3)NC(=O)Cn3nc(C(F)F)c4c3C(F)(F)[C@@H]3C[C@H]43)c21` (single isomer, unassigned) [Example 6.1]: the pEC50 in series [1] (Table 1) was 5.99. This compound gave a cytotoxic concentration (CC50) at 4 days in series [3] (Table 1, day 4, XTT) of over 10000 nM.
Take `Cn1nc(NS(C)(=O)=O)c2c(Cl)ccc(-n3c([C@H](Cc4cc(F)cc(F)c4)NC(=O)Cn4nc(C(F)F)c5c4C(F)(F)[C@@H]4C[C@H]54)nc4ccc(OC(F)(F)F)cc4c3=O)c21` (single isomer, unassigned) [Example 140]: the pEC50 in series [1] (Renilla, NL43, Table 1a) is 9.49. The same compound came in with a cytotoxic concentration (CC50) at 4 days in series [3] (Table 1a, day 4, XTT) of over 1000 nM.
For `O=C(Cn1nc(C(F)F)c2c1C(F)(F)[C@@H]1C[C@H]21)NC(Cc1cc(F)cc(F)c1)c1nc2ncccc2c(=O)n1-c1ccc(Cl)cc1` (stereo partly drawn) [Example 123, N-(1-(3-(4-chlorophenyl)-4-oxo-3,4-dihydropyrido[2,3-d]pyrimidin-2-yl)-2-(3,5-difluorophenyl)ethyl)-2-((3bS,4aR)-3-(difluoromethyl)-5,5-difluoro-3b,4,4a,5-tetrahydro-1H-cyclopropa[3,4]cyclopenta[1,2-c]pyrazol-1-yl)acetamide], in series [1] (Renilla, NL43, Table 1a), the pEC50 is 6.39. Further, in series [3] (Table 1a, day 4, XTT), the half-maximal cytotoxic concentration (CC50) at 4 days was over 1000 nM.
As for `Cn1nc(NS(C)(=O)=O)c2c(Cl)ccc(-n3c([C@H](Cc4cc(F)cc(F)c4)NC(=O)Cn4nc(C(F)F)c5c4C(F)(F)[C@@H]4C[C@H]54)nc4cc(C#N)ccc4c3=O)c21` (single isomer, unassigned) [Example 20], the pEC50 in series [1] (Renilla, NL43, Table 1) was 7.62. In addition, the CC50 at 4 days in series [3] (Table 1, day 4, XTT) was over 10000 nM.
